The source of these data is US20060069155A1, “Method for reducing exacerbations associated with COPD” (priority 2000, published 2006).

For series [1] the following is noted: developed as an antidepressant; cited from earlier work.
For series [2] the following is noted: targeted for the treatment of multi-infarct dementia; 'may include'; cited from earlier work.
The test system of series [3] is COPD exacerbations in patients with COPD. Put plainly: Clinical Study C: placebo-controlled, double-blind 6-month study of Ariflo 15 mg BID in COPD patients. Conditions: for Number of Patients Exacerbation-free / Estimated Percentage Exacerbation-Free (Exacerbation-free Survival Rate): 24 weeks, ITT, 15 mg BID; for Estimated Percentage Exacerbation-Free (Exacerbation-free Survival Rate): Kaplan-Meier estimate. The series is classed as in vivo, human. The text has this: (§1) Acute COPD exacerbations, defined as worsening of COPD symptoms that required changes in treatment including antimicrobial therapy, a short course of oral corticosteroids or other bronchodilator therapy. Exacerbations were categorized to three levels: • Level 1: self-managed by the patient at home by increasing usual medication for COPD. • Level 2: requiring additional treatment prescribed by a family or primary care physician or as a result of a hospital outpatient visit including a visit to the Emergency Room. • Level 3: requiring the patient to be admitted to the hospital for treatment. Clinical trials in COPD patients were carried out to investigate the efficacy of an 15 mg immediate release tablet, BID of Ariflo. […] In each of the studies, patients with COPD entered a 4-week placebo run-in period and were then randomized to receive Ariflo 15 mg twice daily or placebo in a ratio of 2 to 1. Patients were monitored following 1, 2 and 4 weeks of treatment and subsequently at 4-week intervals. Patients were permitted to receive concomitant salbutamol (prn) and/or short acting anticholinergic therapy at a stable dose during these studies. Pulmonary function measurements were performed at each visit (with the exception of Week 1). The St. George's Respiratory Questionnaire (SGRQ) was administered at Baseline, and Weeks 12 and 24 (or at the time of withdrawal). Routine compliance, vital sign, and laboratory assessments were performed at each visit. These studies included frequent ECG assessments and extensive monitoring of patients reporting gastrointestinal adverse experiences of potential clinical concern to address concerns about possible effects of SB 207499 on both cardiovascular and gastrointestinal body systems. 12-lead ECG assessments were conducted at screening, prior to dosing at Baseline, and prior to dosing at each visit during the double-blind treatment period. In addition, 12-lead ECGs were performed 3 hours after the administration of drug on the first and last day of dosing. In a subset of patients, 24-hour Holter ECG monitoring was conducted during Run-in and at Weeks 1 and 20. Orthostatic vital signs and faecal occult blood tests were determined for all patients in order to obtain a general incidence of abnormal assessments in this patient population. Orthostatic vital signs were determined at Screening, Baseline and the end of double-blind treatment. Faecal occult blood tests were performed between Screening and Baseline and between 20 weeks and the end of double-blind treatment (24 weeks).

For series [4] the test system is unchanged. Put plainly: Clinical Study B: placebo-controlled, double-blind study of Ariflo 15 mg BID in COPD patients. The series is classed as in vivo, human. As to conditions: for Number of Patients Exacerbation-free / Estimated Percentage Exacerbation-Free (Exacerbation-free Survival Rate): 24 weeks, ITT, 15 mg BID; for Estimated Percentage Exacerbation-Free (Exacerbation-free Survival Rate): Kaplan-Meier estimate.
Excerpt: as §1, with “studies. Study B included a 2-week, randomised, double-blind, run-out phase to examine the effects of discontinuation of treatment. Patients who received Ariflo during the initial 24 week period, were randomized (1:1 ratio) to Ariflo 15 mg BID or placebo for the run-out phase; patients who received placebo during the initial 24 weeks, continued on placebo during the run-out phase.” for “studies.”

For series [5] the test system is unchanged. Put plainly: Clinical Study A: placebo-controlled, double-blind 6-month study of Ariflo 15 mg BID in COPD patients. The series is classed as in vivo, human. As to conditions: for Number of Patients Exacerbation-free / Estimated Percentage Exacerbation-Free (Exacerbation-free Survival Rate): 24 weeks, ITT, 15 mg BID; for Estimated Percentage Exacerbation-Free (Exacerbation-free Survival Rate): Kaplan-Meier estimate.
Excerpt: as §1

[6] abbreviates: 15 mg immediate release tablet BID.

“Also recorded” adds a separate entry of the source.

On to `COc1ccc(C2CNC(=O)C2)cc1OC1CCCC1` (stereo not drawn) [rolipram], for which, in series [1], the “side effects in clinical studies” value is “psychotropic activity; also recorded: gastrointestinal effects, e.g., pyrosis, nausea and emesis”.

As for `CCCCn1c(=O)c2c(ncn2CC(C)=O)n(CCCC)c1=O` [denbufylline], the side effects entry in series [2] was “pyrosis, nausea and emesis”.

For `COc1ccc([C@]2(C#N)CC[C@@H](C(=O)O)CC2)cc1OC1CCCC1` [SB207499, cis-4-cyano-4-[3-(cyclopentyloxy)-4-methoxyphenyl]cyclohexane-1-carboxylic acid], the affect on exacerbations entry in series [3] (15 mg BID over 6 months) is given as “marginal”. Further, in series [3] (15 mg BID over 6 months), the “efficacy in treating COPD” value is listed as “equivocal”. Further, the “Number of Patients Exacerbation-free” value was determined as 299 in series [3] (All Exacerbations, of 474 patients); 354 in series [3] (Level 2 and 3 Exacerbations); 318 in series [4] (All Exacerbations, of 469 patients); 367 in series [4] (Level 2 and 3 Exacerbations); 336 in series [5] (All Exacerbations, of 431 patients); 364 in series [5] (Level 2 and 3 Exacerbations). The “Estimated Percentage Exacerbation-Free (Exacerbation-free Survival Rate)” value in series [3] (All Exacerbations, placebo 56.0) is 58.3%; in series [3] (Level 2 and 3 Exacerbations, placebo 71.0), 70.9%; in series [4] (All Exacerbations, placebo 51.1), 63.9%; in series [4] (Level 2 and 3 Exacerbations, placebo 64.3), 75.5%; in series [5] (All Exacerbations, placebo 62.4), 74.0%; in series [5] (Level 2 and 3 Exacerbations, placebo 69.7) it was 81.7%. Moreover, the “estimated percentages of patients exacerbation-free compared to placebo” value is on record as “significantly greater” in series [4] (15 mg IR tablet BID, P=0.004) and “significantly greater” in series [5] (15 mg IR tablet BID, P=0.008). Moreover, the “incidence of all categories of exacerbations and of more severe exacerbations (Levels 2 and 3) versus placebo” value in series [4] (setting [6]) and in series [5] (setting [6]) was “lower incidence” throughout. The “reduction of the risk of an exacerbation requiring treatment by a physician or hospitalization (Levels 2 and 3)” value in series [4] (over 26 weeks, P=0.004) was 32%. The “reduction of the risk of having an exacerbation relative to placebo” value in series [4] (over 26 weeks, P=0.005) is listed as 30%; in series [5] (15 mg immediate release tablet BID, Kaplan-Meier estimates, P=0.002) it was 39%. Besides, the “reduction of the risk of an exacerbation requiring treatment by a physician or hospitalization” value in series [5] (15 mg immediate release tablet BID, Kaplan-Meier estimates, P=0.001) was 45%.
